Source: PubChem BioAssay AID588680 (Southern Research Specialized Biocontainment Screening …, 2011)
pIC50: −log10 of the molar value. The source made the active and inactive calls.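 Rule for the calls: active = inhibition of 30% or more at any tested concentration; inactive = the rest.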

Biological target: M1-family alanyl aminopeptidase (PfM1AAP), Plasmodium falciparum 3D7
Test: malaria M1 alanyl aminopeptidase inhibitors – biochemical, QFRET, H-Leu-NHMec substrate, selectivity assay for PfM18AAP inhibitor project, dose response (AID 588680)
Conditions: recombinant PfM1AAP, H-Leu-NHMec fluorogenic cleavage

| inhibition (at 100 µM (top of the series)) | pIC50 | Compound | other results |
| --- | --- | --- | --- |
| inactive |  | COc1ccc(CCNc2c3c(nc4ccccc24)CCCC3)cc1OC |  |
| inactive |  | Oc1ccc(CCNc2c3ccccc3nc3ccccc23)cc1 |  |
| inactive |  | COc1ccc(-c2csc(-c3ccccc3)n2)cc1OC |  |
| inactive |  | Oc1ccc(CNc2c3ccccc3nc3ccccc23)cc1O |  |
| inactive |  | COc1ccc(CCN(C)CCc2ccccc2)cc1OC |  |
| inactive |  | NCCNc1c2ccccc2nc2ccccc12 |  |
| inactive |  | Cc1c(O)c(=O)ccn1CCNc1c2ccccc2nc2ccccc12 |  |
| inactive |  | COc1ccc(CCN(C)c2ccncc2)cc1OC |  |
| inactive |  | COc1ccc(CCNc2ccncc2)cc1OC |  |
| inactive |  | COc1ccc(CCN2CCc3ccccc3C2)cc1OC |  |
| inactive |  | COc1ccc(CCNc2ccc3ccccc3c2)cc1OC |  |
| inactive |  | COc1ccc(CCNc2ccnc3ccccc23)cc1OC |  |
| inactive |  | COc1cccc(CCNc2c3ccccc3nc3ccccc23)c1 |  |
| inactive |  | COc1ccc(-c2csc(-c3ccccc3OC)n2)cc1OC |  |
| inactive |  | COc1ccc(CCNc2c3ccccc3nc3ccccc23)cc1OC |  |
| inactive |  | COc1ccc(CCCNc2c3ccccc3nc3ccccc23)cc1OC |  |
| inactive |  | COc1ccc(CCN(C)c2ccnc3ccccc23)cc1OC |  |
| inactive |  | COc1ccc(CCN(C)c2c3ccccc3nc3ccccc23)cc1OC |  |
|  | 4.71 | CN(CCc1ccc(O)c(O)c1)c1ccnc2ccccc12 |  |
| inactive |  | COc1ccc(-c2nc(-c3ccccc3)c(-c3ccccc3)[nH]2)cc1OC |  |
| inactive |  | Cc1c(OCc2ccccc2)c(=O)ccn1CCNc1c2ccccc2nc2ccccc12 |  |
| inactive |  | O=c1ccn(CCNc2c3ccccc3nc3ccccc23)cc1OCc1ccccc1 |  |
| inactive |  | COc1ccc(CCNc2c3ccccc3nc3ccccc23)cc1 |  |
| inactive |  | COc1ccc(CCNc2cccc3ccccc23)cc1OC |  |
| inactive |  | COc1ccc(CCNC2CCN(Cc3ccccc3)CC2)cc1OC |  |
| inactive |  | COc1ccc(CNc2c3ccccc3nc3ccccc23)cc1OC |  |

The remaining lines, values behind:

| Compound | inhibition (at 100 µM (top of the series)) | pIC50 | other results |
| --- | --- | --- | --- |
| Nc1cc(C(=O)c2ccccc2)ccc1O |  | 4.39 |  |
| CCOc1cccc(-c2nc(-c3ccc(O)c(O)c3)cs2)c1 |  | 4.40 |  |
| COc1ccc(CC(=O)O)cc1OC | inactive |  |  |
| Oc1ccc(CCNc2cncc3ccccc23)cc1O |  | 4.45 |  |
| COc1ccc(CCC(=O)O)cc1OC | inactive |  |  |
| CCC(C)c1ccc(N)c(O)c1 (stereo not drawn) |  | 4.37 |  |
| O=c1ccc2cc(O)c(O)cc2o1 |  | 4.32 |  |
| O=C1c2ccc3c4c(ccc(c24)C(=O)N1O)CC3 |  | 4.12 |  |
| Oc1ccc(CCN2CCc3ccccc3C2)cc1O |  | 4.11 |  |
| O=S1(=O)c2ccccc2-c2cc(-c3nc(-c4ccc(O)c(O)c4)[nH]c3-c3ccccc3)ccc21 |  | 4.40 |  |
| Oc1ccc(CCNc2c3c(nc4ccccc24)CCCC3)cc1O |  | 4.46 |  |
| COc1ccc(CCN2CCN(C)CC2)cc1OC | inactive |  |  |
| Oc1ccc(CCNC(c2ccccc2)c2ccccc2)cc1O |  | 4.26 |  |
| Oc1ccc(CCNc2ccc3ccccc3c2)cc1O |  | 4.46 |  |
| O=C(c1ccco1)N1CCN(Cc2cc(=O)c(O)c[nH]2)CC1 | inactive |  |  |
| COc1cccc(-c2nc(-c3ccc(OC)c(OC)c3)cs2)c1 | inactive |  |  |

| Compound | inhibition (at 100 µM (top of the series)) | pIC50 | other results |
| --- | --- | --- | --- |
| O=c1cc(CO)oc(CN2CCCCC2)c1O | inactive |  |  |
| O=c1cc(CN2CCN(Cc3ccccc3)CC2)c2ccc(O)c(O)c2o1 |  | 4.04 |  |
| CN(CCc1ccc(O)c(O)c1)c1ccncc1 |  | 4.35 |  |
| O=C1OCCN1CCc1nc(-c2ccc(O)c(O)c2)cs1 |  | 4.42 |  |
| O=C(O)CCCCNc1c2ccccc2nc2ccccc12 |  |  | inhibition (at 50 µM (top of the series)): inactive |
| O=C(c1ccco1)N1CCN(Cc2cc(=O)c(O)co2)CC1 | inactive |  |  |
| Oc1ccc(CCNc2cccc3ccccc23)cc1O |  | 4.52 |  |
| Oc1ccc(-c2csc(Cc3cc4ccccc4[nH]3)n2)cc1O |  | 4.70 |  |
| CCC(C)C(=O)Nc1ccccc1N (stereo not drawn) | inactive |  |  |
| Cc1ccc(-c2nc(-c3ccc(O)c(O)c3)cs2)cc1 |  | 4.43 |  |
| CCC(C)C(=O)Nc1ccccc1O (stereo not drawn) | inactive |  |  |
| CC(C)(C)C(=O)OCc1nc(-c2ccc(O)c(O)c2)cs1 |  | 4.38 |  |
| Cc1nc(NCCc2ccc(O)c(O)c2)c2c3c(sc2n1)CCC3 |  | 4.40 |  |
| Cc1c(-c2ccccc2)[nH]c(-c2ccc(O)c(O)c2)[n+]1O |  | 4.27 |  |
| COc1ccc(CCNC2CCN(C)CC2)cc1OC | inactive |  |  |
| O=C(O)CCCNc1c2ccccc2nc2ccccc12 |  |  | inhibition (at 50 µM (top of the series)): inactive |
